Source: patent US20090030055A1, “PKC activation as a means for enhancing s[sequence] secretion and improving cognition using bryostatin type compounds” (priority 2002, published 2009)
Entries after “also recorded” stand apart in the source; their conditions may differ.

How the values were obtained:
PKC [1] = settings: cited from earlier work
PKC [2] = assay: PKC affinity of bryostatin 1 and bryologs; type: binding; settings: times more potent than bryostatin-1
From the text: Analogs of bryostatin, commonly referred to as bryologs, are one particular class of PKC activators that are suitable for use in the methods of the present invention. […] Structurally, they are all similar. While bryostatin-1 has two pyran rings and one 6-membered cyclic acetal, in most bryologs one of the pyrans of bryostatin-1 is replaced with a second 6-membered acetal ring. This modification […] the stability of bryologs, relative to bryostatin-1, for example, in both strong acid or base, but has little significance at physiological pH. Bryologs also have a lower molecular weight (ranging from about 600 to 755), as compared to bryostatin-1 (988), a property which facilitates transport across the blood-brain barrier.

[3] = tested on: double transgenic mice carrying the V7171 mutation and a Presenilin-1 (PS1) mutation; assay: Double transgenic mice (V7171 and Presenilin-1 mutation) treated with Bryostatin-1; type: in vivo; settings: 40 μg/k.g. i.p. three times a week
Experimental: A second transgenic study using similar procedures/testing and protocol was performed using double transgenic mice carrying the V7171 mutation and a Presenilin-1 (PS1) mutation, which causes accelerated amyloid formation, with the following major differences. Approximately 40 mice including both treated and controls were utilized. Treatment began at approximately 3 weeks of age and consisted of treatments with 40 μg/k.g. i.p. three times a week using Bryostatin-1. Controls were given vehicle alone. The treatment continued for approximately seven months before the morbidity rate of the non-treated animals necessitated termination of the experiment (see FIG. 10).

Wistar albino rats = assay: Morris Water Maze; type: in vivo; settings: for learning, escape latency from trial to trial: i.c.v. 1 μl/site of 2 μM, vs vehicle control
From the text: (See, for example, Hollister, L. E., 1990, Pharmacopsychiat., 23, (Suppl II) 33-36). The available animal models of memory loss and impaired learning involve measuring the ability of animals to remember a discrete event. These tests include the Morris Water Maze and the passive avoidance procedure. In the Morris Water Maze, animals are allowed to swim in a tank divided into four quadrants, only one of which has a safety platform beneath the water. The platform is removed and the animals are tested for how long they search the correct quadrant verse the incorrect quadrants. In the passive avoidance procedure the animal remembers the distinctive environment in which a mild electric shock is delivered and avoids it on a second occasion. A variant of the passive avoidance procedure makes use of a rodent's preference for dark enclosed environments over light open ones. Further discussion can be found in Crawley, J. N., 1981, Pharmacol. Biochem. Behav., 15, 695-699; Costall, B. et al., 1987, Neuropharmacol., 26, 195-200; Costall, B. et at, 1989, Pharmacol. Biochem. Behav., 32, 777-785; Barnes, J. M. et al., 1989, Br. J. Pharmacol., 98 (Suppl) 693P; Barnes, J. M. et al., 1990, Pharmacol. Biochem. Behav., 35, 955-962.
Wistar albino rats (n=20) weighing between 220-250 g were housed for one week with free access to food and water. Stainless steel cannulas were placed bilaterally in each rat, following previously described procedures (49). […] Subsequently, animals were assigned randomly to experimental and control groups. At least 24 h prior to treatment and training, all animals were pre-exposed to the MWM experimental situation by placing them in the water and allowed to swim for 120 s. The training followed standard procedures (49) and consisted of two trials per day for 4 consecutive days. […] The control group received the same volume of vehicle alone, on identical schedule. On the fifth day, the platform was removed and the retention test was conducted. Animals' movements and escape latencies were recorded with an automatic tracking system. […] Acquisition of memory was measured as time spent in the relevant quadrant (5th day). […] Bryostatin-1 is capable of being used at concentrations to improve cognition that are 300 to 300,000 times lower than the concentration used to treat tumors.

[4] = tested on: sAPPα secretion, control cell lines AG07141 and AG06241; assay: sAPPα secretion immunoblot, control fibroblasts; type: cell-based, human; settings: two control cell lines pooled, 0.1 nM, compared to DMSO alone
Experimental: (§1) Cultured skin fibroblasts were obtained from the Coriell Cell Repositories and grown using the general guidelines established for their culture with slight modifications (Cristofalo & Carpentier, 1988; Hirashima et al., 1996). The culture medium in which cells were grown was Dulbecco's modified Eagle's medium (GIBCO) supplemented with 10% fetal calf serum (Biofluids, Inc.). Fibroblasts from control cell lines (AC), cases AG07141 and AG06241, and a familial AD (FAD) case (AG06848) were utilized.
Cells grown to confluence in 6 cm Petri dishes for 5-7 days. On the day of the experiment, medium was replaced with DMEM without serum and left undisturbed for 2 h. Upon completion of the 2 hour serum deprivation; treatment was achieved by direct application to the medium of Bryo, BL and DMSO at the appropriate concentrations. (0.1 and 0.01 nM for bryostatin; 0.1 nM, 0.1 μM, and 1 μM BL). DMSO was less than 1% in all cases. […]
The concentration of secreted APP was measured using conventional immunoblotting techniques, with minor modifications the protocol. […] The signal was then detected using enhanced chemiluminescence followed by exposure of Hyperfilm ECL (Amersham). The band intensities were quantified by densitometry using a BioRad GS-800 calibrated scanning densitometer and Multianalyst software (BioRad).

[5] = tested on: sAPPα secretion, AD cell line AG06848; assay: sAPPα secretion immunoblot, AD fibroblasts; type: cell-based, human; settings: for secretion of sAPPα: AD cell line AG06848, three hours of treatment, relative to DMSO
Experimental: as §1
Cells grown to confluence in 6 cm Petri dishes for 5-7 days. On the day of the experiment, medium was replaced with DMEM without serum and left undisturbed for 2 h. Upon completion of the 2 hour serum deprivation; treatment was achieved by direct application to the medium of Bryo, BL and DMSO at the appropriate concentrations. (0.1 and 0.01 nM for bryostatin; 0.1 nM, 0.1 μM, and 1 μM BL). DMSO was less than 1% in all cases. In most cases, medium was collected and processed after 3 hours of treatment for sAPP secretion. Other time points were also used to establish a time course of secretion.
sAPP—Determinations/Measurements of sAPPα
The concentration of secreted APP was measured using conventional immunoblotting techniques, with minor modifications the protocol. Precipitated protein extracts from each dish/treatment were loaded to freshly prepared 10% acrylamide Tris-HCl minigels and separated by SDPAGE. The volume of sample loaded was corrected for total cell protein per dish. Proteins were then electrophoretically transferred to PVDF membranes. Membranes were saturated with 5% non-fat dry milk to block non-specific binding. Blocked membranes were incubated overnight at 4° C. with the commercially available antibody 6E10 (1:500), which recognizes sAPP-alpha in the conditioned medium (SENETEK). After washing, the membranes were incubated at room temperature with horseradish peroxidase conjugated anti-mouse IgG secondary antibody (Jackson's Laboratories). The signal was then detected using enhanced chemiluminescence followed by exposure of Hyperfilm ECL (Amersham). The band intensities were quantified by densitometry using a BioRad GS-800 calibrated scanning densitometer and Multianalyst software (BioRad).

PKC-α = molecular target: T1, PKC-α (Homo sapiens, UniProt P17252); assay: Immunoblot assay for PKC translocation, α isoenzyme; type: cell-based
T1 construct: endogenous in cells; host or cells: human fibroblasts (AD patient and control lines)
Experimental: Immunoblot experiments were conducted using well-established procedures (Dunbar, 1994). Cells were grown to confluency (˜90%) in 6 cm Petri dishes. […] Fibroblasts were washed twice with ice-cold PBS, scraped in PBS, and collected by low-speed centrifugation. The pellets were re-suspended in the following homogenization buffer: 20 mM Tris-HCl, pH 7.5, 2 mM EDTA, 2 mM EGTA, 5 mM DTT, 0.32 M sucrose, and protease inhibitor cocktail (Sigma). […] The pellets were homogenized in the same buffer containing 1.0% Triton X-100, incubated in ice for 45 minutes, and centrifuged at ˜12,000 g for 20 minutes. The supernatant from this batch was used as the membranous fraction. After protein determination, 20 μg of protein were diluted in 2× electrophoresis sample buffer (Novex), boiled for 5 minutes, run on 10% acrylamide gel, and transferred electrophoretically to a PVDF membrane. The membrane was saturated with 5% milk blocker by incubating it at room temperature for an hour. The primary antibody for PKC isoform (Transduction Laboratories) was diluted (1:1000) in blocking solution and incubated with the membrane overnight at 4° C. […] The band intensities were quantified by densitometry using a BioRad GS-800 calibrated scanning densitometer and Multianalyst software (BioRad).

[6] = humans; cited from earlier work
[7] = approximately seven months, vs vehicle

CCCCCCCC(=O)O[C@H]1/C(=C/C(=O)OC)C[C@H]2C[C@H](CO)OC(=O)C[C@H](O)C[C@@H]3CCC[C@H](C[C@@H]4CCO[C@H](/C=C/C(C)(C)[C@]1(O)O2)O4)O3 [Analog 1]
affinity for PKC, in words (PKC [1]): highest affinity | Ki (PKC [1]; read-out: PKC Affin): 0.25 nM | potency relative to bryostatin-1 (PKC [2]): about 100 times

CCC/C=C/C=C/C(=O)O[C@H]1/C(=C/C(=O)OC)C[C@H]2C[C@H]([C@@H](C)O)OC(=O)C[C@H](O)C[C@@H]3C[C@H](OC(C)=O)C(C)(C)[C@](O)(C[C@@H]4C/C(=C/C(=O)OC)C[C@H](/C=C/C(C)(C)[C@]1(O)O2)O4)O3 [Bryostatin 1]
percent plaque load, Thioflavin S staining ([3]; approximately seven months, vs controls): decrease in percent plaque load | behavioural differences, water testing [3, 7]: not significant | total APP [3, 7]: overall lower amount; also recorded: noticeable change | life span, life percentage over time ([3]; vs controls, listed as Bryostatin): increase in life span | life span, life percentage over time ([3]; vs controls, listed as Bryostatin-1): greater life percentage over time | time to improved cognition over control rats (Wistar albino rats; i.c.v.): ≤ 2 days | learning, escape latency from trial to trial (Wistar albino rats; listed as bryostatin): significantly faster | learning, escape latency from trial to trial (Wistar albino rats; listed as bryostatin 1): significantly lower | memory or retention, time spent in the relevant quadrant (Wistar albino rats; i.c.v., 5th day, platform removed, vs controls): significantly enhanced | secretion of sAPPα ([4]; listed as Bryostatin): effective in enhancing secretion | secretion of sAPPα ([4]; listed as bryostatin): enhanced the secretion of sAPPα | sAPPα secretion, time-course ([5]; 0.01 nM compared with 0.1 nM, 2 and 3 h of incubation): undistinguishable from the higher | sAPPα secretion, time-course ([5]; 0.01 nM, only after 60 min of incubation): robust enhancement | sAPPα secretion, time-course ([5]; 0.1 nM, 2 and 3 h compared with 60 min): did not substantially differ from 60 min incubation | sAPPα secretion, time-course ([5]; 0.1 nM, 30 and 60 min): Progressive and proportional increases | sAPPα secretion, time-course ([5]; 0.1 nM, 15 min incubation): marked increase | secretion of sAPPα ([5]; 0.1 nM, listed as Bryostatin): dramatically enhanced | secretion of sAPPα ([5]; 0.1 nM, listed as bryostatin): dramatic increase | time of maximal PKC translocation (measure of activation) (PKC-α): 30 min | main adverse reaction [6]: myalgia | maximum dose, limited by myalgia [6]: 40 mg/m2
